Legend:
neutrophils on HCAECs = test: Adhesion of neutrophils to HCAECs on coated 316 L stainless steel; type: cell-based, human; details: PLGA slow-release coating on 316 L steel, co-culture 1 h; activators in combination with rapamycin
Protocol: (§1) The effect of APC on a simulated stent environment of PLGA slow-release coating on a 316 L steel sheet is investigated. Slow-release coatings of a solvent control (tetrahydrofuran, THF) wrapped in poly(lactic-co-glycolic acid) (PLGA 75:25), rapamycin (50 μg/mL), APC (50 μg/mL), 40 μM of TR47, and 20 μM of Parmodulin 2, or each in combination with rapamycin (50 μg/mL) are coated on surfaces of 316 L stainless steel plates respectively.
(§2) After HCAECs are grown on the 316 L stainless steel plate for 48 h, the cell viability is tested by a CCK-8 method, the cell multiplication capacity is tested by an EdU method, and the cell migration capacity is tested by a scratch method. […] Calcein-AM staining is followed by fluorescence microscopy.
(§3) The above cells are inoculated on 316 SS, 316 L SS/Rapamycin, 316 L SS/Rapamycin/APC, 316 L SS/Rapamycin/TR47, and 316 L SS/Rapamycin/Parmodulin 2 in a 24-well plate at a density of 2×10^4 cells/mL. 10 μL of CCK-8 reaction solution is added to a 24-well plate according to CCK-8 instructions, and the optical density value (OD value) is measured at 4 h by a spectrophotometer with a wavelength of 450 nm. For EdU analysis, reagent A is added a medium in a 24-well plate and cultured at 37° C. for 4 h to label EdU, and then, cells are captured with a fluorescence microscope (EVOS FL) according to manufacturer's instructions. […]

platelets on HCAECs = test: Adhesion of platelets to HCAECs on coated 316 L stainless steel; type: cell-based, human; details: PLGA slow-release coating on 316 L steel, co-culture 1 h; activators in combination with rapamycin
Protocol: as §1, §2, §3

HCAECs [1] = test: Scratch migration of HCAECs on coated 316 L stainless steel; type: cell-based, human; details: PLGA slow-release coating, 48 h, scratch method; rapamycin 50 μg/mL; activators in combination with rapamycin
Protocol: as §1
After HCAECs are grown on the 316 L stainless steel plate for 48 h, the cell viability is tested by a CCK-8 method, the cell multiplication capacity is tested by an EdU method, and the cell migration capacity is tested by a scratch method. The HCAECs are co-cultured with neutrophils (10^6/well) or platelets (5×10^6/well) labeled with 2 μM of PKH-26 for 1 h. Calcein-AM staining is followed by fluorescence microscopy.

HCAECs [2] = test: EdU multiplication of HCAECs on coated 316 L stainless steel; type: cell-based, human; details: PLGA slow-release coating, 48 h, rapamycin 50 μg/mL, activators in combination with rapamycin
Protocol: as §1, §2, §3

HCAECs [3] = test: CCK-8 viability of HCAECs on coated 316 L stainless steel; type: cell-based, human; details: PLGA slow-release coating, 48 h, rapamycin 50 μg/mL, activators in combination with rapamycin
Protocol: as §1, §2, §3

[4] = system: endothelial protein C receptor (EPCR); test: Western blotting of EPCR expression and EPCR pathway in HCAECs treated with EPCR activators, alone or with rapamycin; type: cell-based, human; details: for activation of the EPCR pathway in HCAECs / protein expression of the EPCR in HCAECs: 10 μM APC, 40 μM TR47, 20 μM Parmodulin 2, 24 h; for effect on the rapamycin-induced inhibition of the EPCR in HCAECs: activator in combination with 100 nM rapamycin, 24 h
Protocol: Specifically, HCAECs are cultured in an EBM-2 (Lonza, CC3156) supplemented with a 3% fetal bovine serum (FBS) and endothelial growth factor supplement mixture (Lonza, CC4176) under standard cell culture conditions (37° C., 5% of CO2), and cells of generations of P3-5 are tested at 70%-80%. HCAECs are treated with 10 μM of APC, 40 μM of TR47 and 20 μM of Parmodulin 2, or each in combination with 100 nM of rapamycin for 24 h, and then, western blotting is performed for testing protein expression.

HCAECs [5] = test: Growth of HCAECs on coated 316 L stainless steel (stent simulation environment); type: cell-based, human; details: PLGA slow-release coating, 48 h; rapamycin 50 μg/mL; activators (APC 50 μg/mL, TR47 40 μM, Parmodulin 2 20 μM) in combination with rapamycin
Protocol: as §1, §2, §3

[6] = system: endothelial protein C receptor (EPCR); test: Western blotting of EPCR protein expression in HCAECs treated with limus drugs or paclitaxel; type: cell-based, human; details: 24 h
Protocol: (§4) Specifically, HCAECs are cultured in an endothelial cell basal medium (EBM)-2 (Lonza, CC3156) supplemented with a 3% fetal bovine serum (FBS) and endothelial growth factor supplement mixture (Lonza, CC4176) under standard cell culture conditions (37° C., 5% CO2), and P3-5 cells are tested at 70%-80%. Western blotting is performed to test protein expression after HCAECs are treated with rapamycin, zotarolimus, everolimus, and paclitaxel at the doses shown in FIG. 1, or 100 nM of tacrolimus, deforolimus, biolimus A9, and pimecrolimus for 24 h. Alternatively, C57BL6/J mice received rapamycin, zotarolimus, everolimus, and paclitaxel at 2 mg/kg of body weight daily via tail vein injection for 2 weeks, and immunofluorescence observation of tissues is performed.

[7] = system: endothelial protein C receptor (EPCR); test: Immunofluorescence of EPCR in mouse cardiac vessels after tail vein injection; type: in vivo; details: C57BL6/J mice, 2 mg/kg daily via tail vein injection for 2 weeks
Protocol: as §4

[8] = system: vascular smooth muscle cells (HCASMCs, HASMCs); test: EdU cell multiplication of vascular smooth muscle cells; type: cell-based, human; details: APC 10 μM
Protocol: (§5) Generations 3-5 of primary human coronary artery smooth muscle cells (HCASMCs) are cultured in a growth medium (Cell applications, cat #31-500). Human arterial smooth muscle cells (HASMCs) are cultured in a smooth muscle cell culture medium containing 2% of FBS and 1% of penicillin/streptomycin at 37° C. in a humidified atmosphere containing 5% of CO2. Ad-EC or Ad-EPCR infected the cells for 48 h. APC is 10 μM, and rapamycin is 100 nM. Fluorescence is observed by a microscope. Protein expression is tested by means of western blotting. The cell viability is tested by means of CCK-8, the cell multiplication capacity is observed by means of EdU, and the migration capacity is evaluated by means of Transwel chamber and scratch tests.

[9] = system: vascular smooth muscle cells (HCASMCs, HASMCs); test: CCK-8 cell viability of vascular smooth muscle cells; type: cell-based, human; details: APC 10 μM
Protocol: as §5

[10] = system: vascular smooth muscle cells (HCASMCs, HASMCs); test: Transwel chamber and scratch migration tests of vascular smooth muscle cells; type: cell-based, human; details: APC 10 μM
Protocol: as §5

[11] = doses shown in FIG. 1, western blotting

CCCC(=O)Nc1cccc(NC(=O)c2ccccc2Br)c1 [Parmodulin 2]
adhesion of neutrophils to surface of ECs (neutrophils on HCAECs): inhibit adhesion | adhesion of platelets to surface of ECs (platelets on HCAECs): inhibit adhesion | migration of HCAECs on 316 L stainless steel (HCAECs [1]): restore | multiplication of HCAECs on 316 L stainless steel (HCAECs [2]): restore | viability of HCAECs on 316 L stainless steel (HCAECs [3]): restore | activation of the EPCR pathway in HCAECs [4]: protectively activate the EPCR pathway | protein expression of the EPCR in HCAECs [4]: induce protein expression of the EPCR in the cells | effect on the rapamycin-induced inhibition of the EPCR in HCAECs [4]: antagonize the inhibitory effect of limus drugs such as rapamycin on the EPCR | growth of HCAECs on 316 L stainless steel (HCAECs [5]): restore

CCOCCO[C@@H]1CC[C@@H](C[C@@H](C)[C@@H]2CC(=O)[C@H](C)/C=C(\C)[C@@H](O)[C@@H](OC)C(=O)[C@H](C)C[C@H](C)/C=C/C=C/C=C(\C)[C@@H](OC)C[C@@H]3CC[C@@H](C)[C@@](O)(O3)C(=O)C(=O)N3CCCC[C@H]3C(=O)O2)C[C@H]1OC [biolimus A9]
expression of EPCR in HCAECs ([6]; 100 nM, western blotting): inhibit expression of the EPCR in HCAECs

CO[C@H]1C[C@@H]2CC[C@@H](C)[C@@](O)(O2)C(=O)C(=O)N2CCCC[C@H]2C(=O)O[C@H]([C@H](C)C[C@@H]2CC[C@@H](OP(C)(C)=O)[C@H](OC)C2)CC(=O)[C@H](C)/C=C(\C)[C@@H](O)[C@@H](OC)C(=O)[C@H](C)C[C@H](C)/C=C/C=C/C=C/1C [deforolimus]
expression of EPCR in HCAECs ([6]; 100 nM, western blotting): inhibit expression of the EPCR in HCAECs

CO[C@H]1C[C@@H]2CC[C@@H](C)[C@@](O)(O2)C(=O)C(=O)N2CCCC[C@H]2C(=O)O[C@H]([C@H](C)C[C@@H]2CC[C@@H](OCCO)[C@H](OC)C2)CC(=O)[C@H](C)/C=C(\C)[C@@H](O)[C@@H](OC)C(=O)[C@H](C)C[C@H](C)/C=C/C=C/C=C/1C [everolimus]
expression of EPCR in mouse cardiac vessels [7]: inhibit expression of the EPCR in mouse cardiac vessels | expression of EPCR in HCAECs [6, 11]: inhibit expression of an EPCR in HCAECs in a concentration-dependent manner

CC(=O)O[C@H]1C(=O)[C@@]2(C)[C@H]([C@H](OC(=O)c3ccccc3)[C@]3(O)C[C@H](OC(=O)[C@H](O)[C@@H](NC(=O)c4ccccc4)c4ccccc4)C(C)=C1C3(C)C)[C@]1(OC(C)=O)CO[C@@H]1C[C@@H]2O [paclitaxel]
expression of EPCR in mouse cardiac vessels [7]: inhibit expression of the EPCR in mouse cardiac vessels | expression of EPCR in HCAECs [6, 11]: inhibit expression of an EPCR in HCAECs in a concentration-dependent manner

CC[C@@H]1/C=C(\C)C[C@H](C)C[C@H](OC)[C@H]2O[C@@](O)(C(=O)C(=O)N3CCCC[C@H]3C(=O)O[C@H](/C(C)=C/[C@@H]3CC[C@H](Cl)[C@H](OC)C3)[C@H](C)[C@@H](O)CC1=O)[C@H](C)C[C@@H]2OC [pimecrolimus]
expression of EPCR in HCAECs ([6]; 100 nM, western blotting): inhibit expression of the EPCR in HCAECs

C=CC[C@@H]1/C=C(\C)C[C@H](C)C[C@H](OC)[C@H]2O[C@@](O)(C(=O)C(=O)N3CCCC[C@H]3C(=O)O[C@H](/C(C)=C/[C@@H]3CC[C@@H](O)[C@H](OC)C3)[C@H](C)[C@@H](O)CC1=O)[C@H](C)C[C@@H]2OC [tacrolimus]
expression of EPCR in HCAECs ([6]; 100 nM, western blotting): inhibit expression of the EPCR in HCAECs

CO[C@H]1C[C@@H]2CC[C@@H](C)[C@@](O)(O2)C(=O)C(=O)N2CCCC[C@H]2C(=O)O[C@H]([C@H](C)C[C@@H]2CC[C@H](n3cnnn3)[C@H](OC)C2)CC(=O)[C@H](C)/C=C(\C)[C@@H](O)[C@@H](OC)C(=O)[C@H](C)C[C@H](C)/C=C/C=C/C=C/1C [zotarolimus]
expression of EPCR in mouse cardiac vessels [7]: inhibit expression of the EPCR in mouse cardiac vessels | expression of EPCR in HCAECs [6, 11]: inhibit expression of an EPCR in HCAECs in a concentration-dependent manner

activated protein C [APC]
adhesion of neutrophils to surface of ECs (neutrophils on HCAECs): inhibit adhesion | adhesion of platelets to surface of ECs (platelets on HCAECs): inhibit adhesion | migration of HCAECs on 316 L stainless steel (HCAECs [1]): restore | multiplication capacity of vascular smooth muscle cells [8]: does not affect | multiplication of HCAECs on 316 L stainless steel (HCAECs [2]): restore | cell viability of vascular smooth muscle cells [9]: does not affect | viability of HCAECs on 316 L stainless steel (HCAECs [3]): restore | activation of the EPCR pathway in HCAECs [4]: protectively activate the EPCR pathway | protein expression of the EPCR in HCAECs [4]: induce protein expression of the EPCR in the cells | effect on the rapamycin-induced inhibition of the EPCR in HCAECs [4]: antagonize the inhibitory effect of limus drugs such as rapamycin on the EPCR | migration capacity of vascular smooth muscle cells [10]: does not affect | growth of HCAECs on 316 L stainless steel (HCAECs [5]): restore
